Where no end group is shown, it is not given here.
Legend:
[1] = system: microbial clusters MY, KR, DN, MC, BL, RM, SP, PA, HR; experiment: Broad-spectrum activity score (in-house scoring matrix); details: sum over 9 microbial clusters: (+) = 1, (X) = 0, Fuel x = -1
Method in brief: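 Each peptide is scored per microbial cluster from its MIC/efficacy with fuel co-incubation: +1 = active in the fuel environment, 0 = no activity in the desired range (microbial proliferation), −1 = no activity in the fuel environment. The score is built from these per-cluster points.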

Kocuria rosea (KR) = experiment: Effectiveness of peptides on spiked fuel samples (aqueous layer); type: cell-based; parameters: key: (+) =1 (implying peptide activity in fuel environment); (X) = 0 (implying no activity in the desired range, indicated by microbial proliferation); Fuel x = -1(implying no activity in fuel environment); details: initial screening in spiked fuel
Method in brief: (§1)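 Filter-sterilized fuel was mixed 1:1 (v/v) with BH medium, the organism was inoculated into the bottom aqueous phase, and peptides were added there at their MICs. Cultures were held aerobically at 30 °C for 30 days, with both layers plated on LBA at 7, 14, 21 and 30 days for viability.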

[2] = system: Dermacoccus nishinomiyaensis (DN); experiment: as above; type: cell-based; parameters: key: (+) =1 (implying peptide activity in fuel environment); (X) = 0 (implying no activity in the desired range, indicated by microbial proliferation); Fuel x = -1(implying no activity in fuel environment); details: initial screening in spiked fuel
Method in brief: as §1

[3] = system: Sphingomonas paucimobilis (SP); experiment: as above; type: cell-based; parameters: key: (+) =1 (implying peptide activity in fuel environment); (X) = 0 (implying no activity in the desired range, indicated by microbial proliferation); Fuel x = -1(implying no activity in fuel environment); details: initial screening in spiked fuel
Method in brief: as §1

[4] = system: Macrococcus caseolyticus (MC); experiment: as above; type: cell-based; parameters: key: (+) =1 (implying peptide activity in fuel environment); (X) = 0 (implying no activity in the desired range, indicated by microbial proliferation); Fuel x = -1(implying no activity in fuel environment); details: initial screening in spiked fuel
Method in brief: as §1

Hormoconis resinae (HR) = experiment: as above; type: cell-based; parameters: key: (+) =1 (implying peptide activity in fuel environment); (X) = 0 (implying no activity in the desired range, indicated by microbial proliferation); Fuel x = -1(implying no activity in fuel environment); details: initial screening in spiked fuel
Method in brief: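 Fuel:BH 1:1 v/v, cells seeded in bottom aqueous phase; peptide at MIC added to aqueous layer; aerobic, 30 °C, 30 d; plating of aqueous + fuel layers d7/14/21/30 for viable counts.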

[5] = system: Pseudomonas aeruginosa (PA); experiment: as above; type: cell-based; parameters: key: (+) =1 (implying peptide activity in fuel environment); (X) = 0 (implying no activity in the desired range, indicated by microbial proliferation); Fuel x = -1(implying no activity in fuel environment); details: initial screening in spiked fuel
Method in brief: as §1

[6] = system: Micrococcus yunnanensis (MY); experiment: as above; type: cell-based; parameters: key: (+) =1 (implying peptide activity in fuel environment); (X) = 0 (implying no activity in the desired range, indicated by microbial proliferation); Fuel x = -1(implying no activity in fuel environment); details: initial screening in spiked fuel
Method in brief: as §1

Roseomonas mucosa (RM) = experiment: as above; type: cell-based; parameters: key: (+) =1 (implying peptide activity in fuel environment); (X) = 0 (implying no activity in the desired range, indicated by microbial proliferation); Fuel x = -1(implying no activity in fuel environment); details: initial screening in spiked fuel
Method in brief: as §1

[7] = system: Bacillus licheniformis (BL); experiment: as above; type: cell-based; parameters: key: (+) =1 (implying peptide activity in fuel environment); (X) = 0 (implying no activity in the desired range, indicated by microbial proliferation); Fuel x = -1(implying no activity in fuel environment); details: initial screening in spiked fuel
Method in brief: as §1

[8] = system: Dermacoccus nishinomiyaensis (DN) ATCC 29093; type: cell-based
Method in brief: (§2)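 Overnight LB cultures, 37 °C → mid-log → 5 × 10^5 CFU/mL; 1:1 with serially diluted peptides, o/n 37 °C, ambient air. MIC = lowest conc. inhibiting growth (plate reader). n = 3, mean reported.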

[9] = system: Pseudomonas aeruginosa (PA) ATCC 39327; type: cell-based; details: ATCC 39327
Method in brief: as §2

[10] = system: Roseomonas mucosa (RM) ATCC BAA-692; type: cell-based
Method in brief: as §2

[11] = system: Micrococcus yunnanensis (MY) ATCC 12698; type: cell-based
Method in brief: as §2

[12] = system: Sphingomonas paucimobilis (SP); type: cell-based
Method in brief: as §2

[13] = system: Macrococcus caseolyticus (MC) ATCC 13548; type: cell-based
Method in brief: as §2

[14] = system: Bacillus licheniformis (BL) ATCC 14580; type: cell-based; details: ATCC 14580
Method in brief: as §2

[15] = system: Kocuria rosea (KR) ATCC 186; type: cell-based
Method in brief: as §2

[16] = HPLC retention time as a function of peptide hydrophobicity; type: physicochemical; details: chromatographic, Polaris 5 C18-A reverse phase, 0.1% TFA water / 0.1% TFA acetonitrile gradient, 30 min, 300 μM peptide
Method in brief: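 Reverse-phase C18 HPLC used water and acetonitrile, each with 0.1% (v/v) TFA, under a constant gradient run for 30 min after injection. Samples were 300 μM peptide in acetonitrile–water (1:4).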

[17] = system: Sheep red blood cells (RBCs); experiment: Hemolysis assay; type: cell-based
Description: The RBCs were centrifuged at 1000g for 15 min at 4 °C to remove the buffy coat and washed 3 times with PBS. 100 μL of 4% (v/v) RBC was suspended in PBS and added into sterilized 96-well plates. 100 μL of peptide solution was added to the suspension of RBCs by serial dilution starting from 200 μM to […] and incubated overnight at 37 °C. Sample absorbance at 545 nm was measured to determine hemoglobin release after centrifuging the plate at 600 g for 10 min. The percentage of cell lysis was calculated using the following formula (eq ). , 1 %lysis=OD545(test)−OD545(blank)/OD545(totallysis)−OD545(blank)×100

In the case of ILPWKWPWWPFRR [P4], the Score [1] is reported as 7, the “activity considering MIC value/efficacy upon fuel co-incubation” value (Kocuria rosea (KR)) is reported as “+” and the “activity considering MIC value/efficacy upon fuel co-incubation” value [2] is reported as “+”. For the same sequence, the “activity considering MIC value/efficacy upon fuel co-incubation” value [3] was “+”, the “activity considering MIC value/efficacy upon fuel co-incubation” value [4] was “+” and the “activity considering MIC value/efficacy upon fuel co-incubation” value (Hormoconis resinae (HR)) was “X”. For the same sequence, the “activity considering MIC value/efficacy upon fuel co-incubation” value [5] was “X”, the “activity considering MIC value/efficacy upon fuel co-incubation” value [6] was “+” and the “activity considering MIC value/efficacy upon fuel co-incubation” value (Roseomonas mucosa (RM)) was “+”. The “activity considering MIC value/efficacy upon fuel co-incubation” value [7] was “+”, the MIC [8] was 0.9 µM and the MIC [9] was 7.8 µM. The MIC [10] was 3.9 µM, the MIC [11] was 0.9 µM and the MIC [12] was 0.9 µM. The MIC [13] was 0.9 µM, the MIC [14] was 0.9 µM and the MIC [15] was 0.9 µM. The “R t, retention time of peptide on HPLC column as a function of peptide hydrophobicity” value [16] was 12.891 min and the “HL50, conc. to reach 50% cell lysis” value [17] was 10 µM.

Reference: paper PMC12442081, “Combating Fuel Biocontamination: Tailored Antimicrobial Peptides and an Innovative Delivery Strategy” (ACS Applied Bio Materials, 2025)
